This is an account of results in patent publication US6387886B1, “Method for the treatment of severe chronic bronchitis (bronchietasis) with an aerosolized antibiotic” (Chiron Corporation, priority 1998, dated 2002).

Structures are written as SMILES. Read-outs that look alike come from different tables or passages of the source.

Assay [1] has as its system P. aeruginosa. Conditions: CF patients, 300 mg inhaled twice daily, cited from earlier work.
In assay [2] the test system is P. aeruginosa. The assay is described as follows: Placebo-controlled clinical study in bronchiectasis: sputum P. aeruginosa density and microbiological response. It is filed as in vivo, Pseudomonas aeruginosa. As to the method: A placebo-controlled, double-blind, randomized study was conducted to evaluate the microbiological efficacy and safety of inhaled tobramycin for treatment of patients with bronchiectasis and P. aeruginosa. […] The change in P. aeruginosa density in sputum was measured at Weeks 2, 4, and 6 (2 weeks post-treatment). Clinicians assessed patients' general medical condition at Week 6. Safety parameters included adverse events, serum chemistry, and airway reactivity. […] At Week 6, P. aeruginosa was eradicated in 35% of TSI-treated patients but was detected in all placebo patients. […] Few patients withdrew due to adverse events. TSI holds promise as a therapy for patients with bronchiectasis. The study was conducted as follows: […] Patients were excluded if they had CF, a diagnosis of allergic bronchopulmonary aspergillosis, an acute pulmonary process requiring medical intervention as indicated by a new infiltrate on a chest radiograph, significant recent hemoptysis, or had received antibiotics within two weeks of the screening visit. Eligible patients were randomly assigned in blocks of two to parallel groups at each study center to receive either TSI or placebo. […] At all study visits, vital signs were measured, adverse events were recorded, and a sputum sample was collected for quantitative microbiology and susceptibility testing. […] At Week 4, airway reactivity was again monitored, a medical exam was performed, and laboratory tests that were performed at screening were repeated. […] The primary efficacy endpoint was the change in P. aeruginosa density (expressed as log10 CFU/g sputum) from baseline to Week 4. […] (2) an investigator's assessment of change in the patient's general medical condition (“improved” or “not improved”) throughout the study (recorded at Week 6); (3) the percent change in FEV1% predicted and in forced vital capacity (FVC) % predicted from Week 0 to Week 4. […] P. aeruginosa was considered eradicated if it was not detected at Week 6 or if the patient was unable to produce a sputum sample at Week 6 and P. aeruginosa was not isolated at Week 4. […]

The test system of a further assay is P. aeruginosa isolates. As to conditions: initial sputum cultures, CF patients, 1993; cited from earlier work.
For assay [3] the following is noted: purulent sputum; cited from earlier work.
The test system of assay [4] is P. aeruginosa. Conditions: cited from earlier work.
The test system of another assay is Gram-negative bacteria. Conditions: cited from earlier work.
Where [5] appears, read: 71 CF patients, 600 mg tid aerosolized.

For `NC[C@H]1O[C@H](O[C@H]2[C@H](O)[C@@H](O[C@H]3O[C@H](CO)[C@@H](O)[C@H](N)[C@H]3O)[C@H](N)C[C@@H]2N)[C@H](N)C[C@@H]1O` [tobramycin], the “average decrease in P. aeruginosa density” value in the assay with P. aeruginosa [1] (28 days on/28 days off, Week 0 to Week 20) is recorded as 0.8 log10. The “average decrease in P. aeruginosa density” value with P. aeruginosa [1] (Week 0 to Week 4) is given as 1.9 log10. The “antimicrobial efficacy relative to cystic fibrosis patients” value in the assay with P. aeruginosa [2] (bronchiectasis versus cystic fibrosis) is “greater than 10,000 fold”. In the assay on P. aeruginosa [2] (in some patients, endobronchial administration), the “factor by which colony forming units (CFU) of P. aeruginosa are decreased” value is listed as ≥ 10^6. The “bronchiectasis patients with complete eradication” value in the assay with P. aeruginosa [2] (summary statement) was determined as 20%. For the same molecule, in the assay with P. aeruginosa isolates, the “isolates with MICs <16 μg/mL” value is 90% and the “isolates with MICs ≦128 μg/mL” value is 98%. For the same molecule, the “higher concentrations required in the sputum to overcome inhibitory effects” value in assay [3] is listed as 5-10 ×. Besides, in the assay on P. aeruginosa [4] (setting [5]), the spirometry entry is “improved spirometry” and the “sputum density of P. aeruginosa” value was “significant reduction”. In the assay with P. aeruginosa [4] (versus placebo), the “emergence of P. aeruginosa strains highly resistant to tobramycin (MIC >128 μg/mL)” value is “comparable in the placebo and treatment groups”. In the assay on Gram-negative bacteria, the “concentrations effective in inhibiting the growth of many Gram-negative bacteria” value was less than 4 µg/mL.
